Results published in ChEMBL document CHEMBL5543168, “Discovery of Urea Derivatives of Celastrol as Selective Peroxiredoxin 1 Inhibitors against Colorectal Cancer Cells” (J Med Chem, 2024).
Active and inactive are the calls of the source. The calls are words filed in the database; no cut-off is given here.

Experiments:
SW-620 [1] = assay: Induction of mitochondrial membrane potential depolarization in human SW620 cells assessed as decrease in fluorescence intensity ratio of JC1-stained aggregates to monomers incubated for 48 hrs by CLSM analysis; format: functional, cell-based; details: dose 0.5-2 µM
[2] = Acute toxicity in C57BL/[…] 6J mouse assessed as pathological change in kidney at 20 mg/kg, ip measured for 2 weeks by H and E staining based analysis; format: organism-based; details: in vivo, 336 h
[3] = Toxicity in BALB/c nude mouse xenografted with human SW620 cells assessed as body weight loss at 2 mg/kg, ip qd for 16 days; format: organism-based, SW-620; details: in vivo, 384 h, time 16 day
SW-620 [4] = assay: Induction of cell cycle arrest at G1 phase in human SW620 cells at 2 uM incubated for 24 hrs by PI staining based flow cytometry (reference value: 32.4 %); format: functional
[5] = Acute toxicity in C57BL/[…] 6J mouse assessed as pathological change in spleen at 20 mg/kg, ip measured for 2 weeks by H and E staining based analysis; format: organism-based; details: in vivo, 336 h
[6] = Antiproliferative activity against human LX2 cells; format: toxicity, cell-based, LX-2
[7] = Selectivity ratio of IC50 for human LX2 cells to IC50 for human HCT-116 cells; format: functional
SW-620 [8] = assay: Induction of mitochondrial membrane potential depolarization in human SW620 cells assessed as decrease in JC-1-stained red cells incubated for 48 hrs by flow cytometry; format: functional, cell-based; details: dose 0.5-2 µM
SW-620 [9] = assay: Induction of apoptosis in human SW620 cells assessed as decrease in Bcl-2 level incubated for 48 hrs by Western blot analysis; format: functional, cell-based; details: dose 0.25-2 µM
[10] = Antiproliferative activity against HEK293T cells; format: toxicity, cell-based, HEK-293T; details: human
SW-620 [11] = assay: Induction of mitochondrial membrane potential depolarization in human SW620 cells assessed as JC-1-stained red cells upto 2 uM incubated for 48 hrs by flow cytometry (reference value: 89.8 %); format: functional; details: up to 2 µM
[12] = target: T1, Peroxiredoxin-1 (Homo sapiens) (UniProt Q06830)
T1 sequence (whole entry): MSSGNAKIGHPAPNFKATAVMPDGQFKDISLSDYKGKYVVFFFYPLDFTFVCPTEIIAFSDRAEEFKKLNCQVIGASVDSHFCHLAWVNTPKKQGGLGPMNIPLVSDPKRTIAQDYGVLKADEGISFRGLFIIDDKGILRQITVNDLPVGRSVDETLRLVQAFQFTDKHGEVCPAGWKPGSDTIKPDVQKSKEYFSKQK
Description: Binding affinity to recombinant PRDX1 (unknown origin)assessed as change in melting temperature by protein thermal shift assay

[13] = Acute toxicity in C57BL/[…] 6J mouse assessed as pathological change in heart at 20 mg/kg, ip measured for 2 weeks by H and E staining based analysis; format: organism-based; details: in vivo, 336 h
SW-620 [14] = assay: Anti-proliferative activity against human SW620 cells xenografted in BALB/c nude mouse at 2 mg/kg, ip qd for 16 days by TUNEL analysis; format: functional, organism-based; details: time 16.0 day
[15] = Clearance in mouse at 2 mg/kg, iv measured for 24 hrs by LC-MS/MS analysis; format: ADME, organism-based; details: in vivo
HCT-116 = assay: Inhibition of cell viability in human HCT-116 cells incubated for 72 hrs by Cell Titer Glo assay; format: functional, cell-based; details: HCT-116, 72 h
[16] = Selectivity ratio of IC50 for HEK293T cells to IC50 for human HCT-116 cells; format: functional
SW-620 [17] = assay: Induction of cell cycle arrest at S phase in human SW620 cells at 2 uM incubated for 24 hrs by PI staining based flow cytometry (reference value: 59.9 %); format: functional
SW-620 [18] = assay: Induction of cell cycle arrest at G1 phase in human SW620 cells at 0.5 uM incubated for 24 hrs by PI staining based flow cytometry (reference value: 32.4 %); format: functional
SW-620 [19] = assay: Induction of cell cycle arrest at G2 phase in human SW620 cells at 2 uM incubated for 24 hrs by PI staining based flow cytometry (reference value: 6.77 %); format: functional
[20] = Selectivity ratio of IC50 for mouse […] cells to IC50 for human HCT-116 cells; format: functional
SW-620 [21] = assay: Induction of cell cycle arrest at G1 phase in human SW620 cells at 1 uM incubated for 24 hrs by PI staining based flow cytometry (reference value: 32.4 %); format: functional
SW-620 [22] = assay: Antitumor activity against human SW620 cells xenografted in BALB/c nude mouse assessed as decrease in tumor weight at 2 mg/kg, ip qd for 16 days; format: functional, organism-based; details: time 16.0 day
[23] = Acute toxicity in C57BL/[…] 6J mouse assessed as body weight loss at 20 mg/kg, ip measured for 2 weeks; format: organism-based; details: in vivo, 336 h
SW-620 [24] = assay: Antitumor activity against human SW620 cells xenografted in BALB/c nude mouse assessed as nuclear pyknosis in tumor cells at 2 mg/kg, ip qd for 16 days by H and E staining based analysis; format: functional, organism-based; details: time 16.0 day
Peroxiredoxin-2 = target: T2, Peroxiredoxin-2 (Homo sapiens, UniProt P32119); assay: Inhibition of recombinant PRDX2 (unknown origin) using H2O2 as substrate preincubated for 0.5 hrs followed by substrate addition by TRX-TrxR-NADPH coupling assay
T2 sequence (P32119 whole entry): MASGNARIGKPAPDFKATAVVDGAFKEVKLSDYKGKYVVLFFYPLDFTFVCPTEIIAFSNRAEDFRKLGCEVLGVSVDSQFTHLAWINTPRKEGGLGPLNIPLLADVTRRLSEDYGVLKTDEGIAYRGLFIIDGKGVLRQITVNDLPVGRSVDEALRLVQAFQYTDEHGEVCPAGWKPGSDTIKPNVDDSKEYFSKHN

[25] = target: T3, Thioredoxin-dependent peroxide reductase, mitochondrial (Homo sapiens, UniProt P30048); assay: Inhibition of recombinant PRDX3 (unknown origin) using H2O2 as substrate preincubated for 0.5 hrs followed by substrate addition by TRX-TrxR-NADPH coupling assay
T3 sequence (P30048 whole entry): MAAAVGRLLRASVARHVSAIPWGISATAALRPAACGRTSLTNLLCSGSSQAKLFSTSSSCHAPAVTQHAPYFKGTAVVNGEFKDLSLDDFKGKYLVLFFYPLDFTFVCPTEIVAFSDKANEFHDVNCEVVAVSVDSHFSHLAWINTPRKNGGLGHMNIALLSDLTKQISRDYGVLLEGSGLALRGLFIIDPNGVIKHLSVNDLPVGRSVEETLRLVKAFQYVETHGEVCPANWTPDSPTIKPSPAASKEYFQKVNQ

SW-620 [26] = assay: Inhibition of cell viability in human SW620 cells incubated for 72 hrs by Cell Titer Glo assay; format: functional, cell-based; details: SW-620, 72 h
[27] = Cmax in mouse at 2 mg/kg, iv measured for 24 hrs by LC-MS/MS analysis; format: ADME, organism-based; details: in vivo
SW-620 [28] = assay: Induction of mitochondrial membrane potential depolarization in human SW620 cells assessed as change in morphological characteristics at 0.5 to 2 uM incubated for 48 hrs by bright-field microscopy; format: functional, cell-based; details: dose 0.5-2 µM
[29] = Acute toxicity in C57BL/[…] 6J mouse assessed as pathological change in liver at 20 mg/kg, ip measured for 2 weeks by H and E staining based analysis; format: organism-based; details: in vivo, 336 h
[30] = Volume of distribution in mouse at 2 mg/kg, iv measured for 24 hrs by LC-MS/MS analysis; format: ADME, organism-based; details: in vivo

## COC(=O)C1(NC(=O)N[C@]2(C)CC[C@]3(C)CC[C@]4(C)C5=CC=C6C(=CC(=O)C(O)=C6C)[C@]5(C)CC[C@@]4(C)[C@@H]3C2)CCC1
SW-620 [1]
  Activity: Dose-Dependent Effect
[2]
  Activity: Non-Toxic
[3]
  Activity: Non-Toxic
SW-620 [4]
  Activity: 29.2%
[5]
  Activity: Non-Toxic
[6]
  IC50: ~1000 nM
[7]
  Selectivity ratio: 2
SW-620 [8]
  Activity: Dose-Dependent Effect
SW-620 [9]
  Activity: Dose-Dependent Effect
[10]
  IC50: ~1000 nM
SW-620 [11]
  Activity: 39.2%
[12]
  ΔTm: -7.5 °C
[13]
  Activity: Non-Toxic
SW-620 [14]
  Activity: Active
[15]
  clearance: 83.1 mL/min/kg
HCT-116
  IC50: 440 nM
[16]
  Selectivity ratio: 2
SW-620 [17]
  Activity: 50.1%
SW-620 [18]
  Activity: 33.5%
SW-620 [19]
  Activity: 17.4%
[20]
  Selectivity ratio: 2
SW-620 [21]
  Activity: 39.7%
SW-620 [22]
  Activity: Active
[23]
  Activity: Non-Toxic
SW-620 [24]
  Activity: Active
Peroxiredoxin-2
  IC50: > 50000 nM
[25]
  IC50: > 50000 nM
SW-620 [26]
  IC50: 320 nM
[27]
  Cmax: 203 ng/mL
SW-620 [28]
  Activity: Active
[29]
  Activity: Non-Toxic
[30]
  Vd: 60.7 L/kg
